Measurements published in US20250122193A1, “NOVEL PYRIDOCARBAZOLIUM COMPOUNDS AND MEDICAL USES THEREOF” (MyCural Therapeutics, priority 2021, published 2025).

How the values were obtained:
[1] = tested on: primary patient derived AML cell cultures and established AML/CML cell lines; assay: primary AML cells and AML/CML cell lines, WST-1 assay
Experimental: C) Primary AML cells from patient biopsies where cultured for 72 hours in presence of MYCMI-7 at indicated doses cell growth was monitored by the WST-1 assay. One representative biological experiment out of at three, performed in triplicates is shown.
Cell growth and viability assays: Cell growth and viability was estimated in triplicates with WST-1 (Roche) or Resazurin sodium salt (Sigma-Aldrich) assays in medium at 37° C. and 5% CO2 for 2 hours after which absorbance or fluorescence, respectively, was measured with an Omega Fluostar (BMG Labtech) in a 96 well plate format. Cell viability by the Cyt60 assay was carried out as in manufacturers' protocol.

Recombinant human Top2a = Recombinant human Top2a (Homo sapiens, UniProt P11388); assay: Top2 decatenation assay; assay type: biochemical; conditions: in vitro decatenation of kDNA
Recombinant human Top2a, sequence (P11388 whole entry): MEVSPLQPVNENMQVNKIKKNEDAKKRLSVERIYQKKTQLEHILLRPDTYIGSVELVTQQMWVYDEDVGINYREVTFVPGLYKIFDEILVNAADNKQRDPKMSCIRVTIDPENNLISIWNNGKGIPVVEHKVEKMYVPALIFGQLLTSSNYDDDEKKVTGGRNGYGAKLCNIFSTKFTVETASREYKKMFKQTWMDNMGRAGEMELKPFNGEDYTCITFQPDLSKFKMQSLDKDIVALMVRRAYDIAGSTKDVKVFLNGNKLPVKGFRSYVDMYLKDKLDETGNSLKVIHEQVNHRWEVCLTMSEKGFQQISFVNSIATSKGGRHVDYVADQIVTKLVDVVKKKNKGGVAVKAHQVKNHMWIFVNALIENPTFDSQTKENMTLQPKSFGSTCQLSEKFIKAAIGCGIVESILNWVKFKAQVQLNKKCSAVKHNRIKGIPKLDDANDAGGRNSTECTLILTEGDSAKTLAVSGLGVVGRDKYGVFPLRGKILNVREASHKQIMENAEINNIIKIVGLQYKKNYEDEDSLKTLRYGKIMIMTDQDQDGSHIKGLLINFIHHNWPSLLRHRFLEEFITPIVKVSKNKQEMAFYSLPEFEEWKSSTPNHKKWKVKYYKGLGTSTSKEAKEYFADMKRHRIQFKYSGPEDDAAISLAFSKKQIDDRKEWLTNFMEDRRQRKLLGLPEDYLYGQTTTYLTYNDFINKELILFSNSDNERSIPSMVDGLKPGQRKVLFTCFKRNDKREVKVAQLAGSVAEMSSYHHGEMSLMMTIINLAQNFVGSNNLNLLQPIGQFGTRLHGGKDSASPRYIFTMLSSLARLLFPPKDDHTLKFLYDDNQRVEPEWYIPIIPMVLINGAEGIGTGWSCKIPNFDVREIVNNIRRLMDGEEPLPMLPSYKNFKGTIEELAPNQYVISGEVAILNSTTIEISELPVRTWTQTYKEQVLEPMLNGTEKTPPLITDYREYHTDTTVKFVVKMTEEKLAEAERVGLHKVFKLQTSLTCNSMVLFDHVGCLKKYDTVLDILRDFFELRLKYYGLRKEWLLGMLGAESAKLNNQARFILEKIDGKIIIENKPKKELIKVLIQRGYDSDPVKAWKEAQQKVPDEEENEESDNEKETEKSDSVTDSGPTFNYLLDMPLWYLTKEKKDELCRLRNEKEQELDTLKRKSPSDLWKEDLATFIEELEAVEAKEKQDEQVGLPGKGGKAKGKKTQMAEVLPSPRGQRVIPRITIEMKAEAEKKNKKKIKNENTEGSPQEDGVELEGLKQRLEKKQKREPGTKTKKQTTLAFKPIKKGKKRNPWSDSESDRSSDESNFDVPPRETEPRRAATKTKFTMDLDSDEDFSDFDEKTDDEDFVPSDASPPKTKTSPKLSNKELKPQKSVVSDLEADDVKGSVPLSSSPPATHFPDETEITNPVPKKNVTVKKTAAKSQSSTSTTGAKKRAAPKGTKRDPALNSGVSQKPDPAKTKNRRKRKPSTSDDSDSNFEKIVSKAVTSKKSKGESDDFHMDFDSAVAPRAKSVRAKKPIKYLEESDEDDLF
Experimental: Top2 decatenation assay: Recombinant human Top2a (15 nM) was incubated with 80 ng catenated kinetoplast DNA (Topogen, TG2013) in Top2 reaction buffer (50 mM Tris pH8, 150 mM NaCl, 10 mM MgCl2, 0.5 mM DTT, 30 μg/ml BSA) with 1-100 μM of either doxorubicin, MYCMI-7, ellipticine or camptothecin for 10 minutes at 37° C. Drug dilutions were made in a DMSO/H2O solution so that a final concentration of 1% DMSO was consistent across all samples. The reaction was stopped with the addition of SDS to a final concentration of 1% and the Top2a was digested by Proteinase K at 55° C. for 10 minutes. DNA was purified by phenol:chloroform extraction before running on a 1% agarose gel either containing or post-stained with 0.5 μg/ml ethidium bromide. The decatenated products were quantified, normalised to the Top2α+DMSO control and plotted using GraphPad Prism.
First, we utilized an in vitro TOP2A decatenation assay. TOP2 enzymes decatenate kinetoplast DNA (kDNA) converting a network of interlocking DNA rings into individual rings that can be separated by agarose gel electrophoresis.

[2] = tested on: normal rat embryo fibroblasts (REFs); assay: cell cycle distribution by flow cytometry, normal REFs; assay type: cell-based; conditions: 5 μM
Experimental: FIG. 4: MYCMI-7 induces apoptosis in malignant cells and growth arrest in normal cells. A) Cell cycle distribution analysis by flow cytometry of MYC-regulated P493-6 cells and normal rat embryo fibroblasts (REFs). Left panel, P493-6 synchronized in G0 by 24 hours treatment of […] doxycycline. Doxycycline was removed and the cells were harvested 48 hours after the addition of fresh medium containing DMSO or 5 μM MYCMI-7. Right panel, flow cytometry analysis of normal REFs treated with DMSO or 5 μM MYCMI-7. B) Apoptosis assay using the Cell Death Detection ELISA^plus kit. Left panel, immortalized Rat1 fibroblasts with different MYC status after 24 hours of 5 μM MYCMI-7 treatment, middle panel and right panels, normal REFs and normal peripheral blood lymphocytes, respectively, after 24 and 48 hours of 5 μM MYCMI-7 treatment. […] Viability was measured by trypan blue exclusion assay. F) Cell growth measured with Cyt62 assay of primary normal human epidermal melanocytes (NHEM) treated for 72 hours with MYCMI-7, G) Viability measured by trypan blue exclusion assay of NHEM after treatment for 72 hours with MYCMI-7.
Flow cytometry: P493-6 cells were synchronized using 1 μg/ml doxycycline. […] Cells were stained with propidium iodide (Sigma) and 1×10^4 cells per treatment were analyzed using a FACScan and CellQuestPro (Becton Dickinson). […]

`CCN(CC)CC[n+]1ccc2c(C)c3[nH]c4ccccc4c3c(C)c2c1` [MYCMI-7, 2-(5,11-Dimethyl-6H-25-pyrido[4,3-b]carbazol-2-yl)-N,N-diethylethanamine bromide] was tested, and the “efficiency compared with 10058-F4, JQ1 and cisplatin” value [1] was “more efficient”, the GI50 ([1]; Homo sapiens) was 150 to 1300 nM and the “concentration at which TOP2A inhibition starts” value (Recombinant human Top2a) was “higher than 10 μM”. The “concentration of complete TOP2A inhibition” value (Recombinant human Top2a) was 100 µM, the cell cycle effect [2] was “induced G1 arrest” and the cell death [2] was “no increase in cell death”.
